Our source for the IC50 values is BindingDB's records for doi:10.1016/j.ejmech.2011.02.013 (King Saud University, 2011).

This assay addresses T1, Prostaglandin G/H synthase 1 (Ovis aries, UniProt P05979).
T1 sequence (P05979 whole entry): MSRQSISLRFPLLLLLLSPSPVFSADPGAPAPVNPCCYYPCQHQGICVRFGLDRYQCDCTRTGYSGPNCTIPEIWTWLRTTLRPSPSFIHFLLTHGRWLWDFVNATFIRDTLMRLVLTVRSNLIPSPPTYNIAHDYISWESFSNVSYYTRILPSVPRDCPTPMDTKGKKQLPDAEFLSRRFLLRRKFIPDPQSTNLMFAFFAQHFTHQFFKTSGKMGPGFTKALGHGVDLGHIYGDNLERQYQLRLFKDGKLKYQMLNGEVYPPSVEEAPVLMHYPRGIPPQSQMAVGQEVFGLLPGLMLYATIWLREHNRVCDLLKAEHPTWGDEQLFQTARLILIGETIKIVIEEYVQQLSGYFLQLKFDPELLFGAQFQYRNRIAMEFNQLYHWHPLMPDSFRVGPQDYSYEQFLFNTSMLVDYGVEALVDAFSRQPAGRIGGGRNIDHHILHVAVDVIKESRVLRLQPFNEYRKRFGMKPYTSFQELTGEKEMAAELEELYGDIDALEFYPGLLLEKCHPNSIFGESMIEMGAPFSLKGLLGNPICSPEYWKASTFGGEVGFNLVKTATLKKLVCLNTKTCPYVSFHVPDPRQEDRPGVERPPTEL
In words: Inhibition of ovine COX1 after 5 mins by enzyme immunoassay.

Where only a bound is given, the exact number is not on record here.

For orientation: IC50 means the midpoint of a concentration-inhibition curve.

Consider `COc1cc(-n2c(O)c3c(c2O)CC=CC3)cc(OC)c1OC` [cis-2-(3,4,5-Trimethoxyphenyl)-3a,4,7,7a-tetrahydro-1H-isoindole-1,3(2H)-dione], for which the IC50 was > 100 µM. In the case of `Oc1c2c(c(O)n1-c1cc(Cl)c(Cl)c(Cl)c1)CC=CC2` [cis-2-(3,4,5-Trichlorophenyl)-3a,4,7,7a-tetrahydro-1H-isoindole-1,3(2H)-dione] it was > 100 µM; in that of `Oc1ccc(O)n1-c1cc(Cl)c(Cl)c(Cl)c1` [1-(3,4,5-trichlorophenyl)pyrrolidine-2,5-dione], > 100 µM; in that of `COc1cc(-n2c(O)c3c(c2O)C2(Cl)C(Cl)=C(Cl)C3(Cl)C2(Cl)Cl)cc(OC)c1OC` [4,5,6,7,8,8-Hexachloro-2-(3,4,5-trimethoxyphenyl)-3a,4,7,7a-tetrahydro-1H-4,7-methanoisoindole-1,3(2H)-dione], > 100 µM. In the case of `Oc1c2c(c(O)n1-c1cc(Cl)c(Cl)c(Cl)c1)C1(Cl)C(Cl)=C(Cl)C2(Cl)C1(Cl)Cl` [4,5,6,7,8,8-Hexachloro-2-(3,4,5-trichlorophenyl)-3a,4,7,7a-tetrahydro-1H-4,7-methanoisoindole-1,3(2H)-dione] it was > 100 µM. In the case of `COc1cc(-n2c(O)ccc2O)cc(OC)c1OC` [1-(3,4,5-Trimethoxyphenyl)pyrrolidine-2,5-dione] it was > 100 µM.
